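Growth conditions: 96-well plates. Treatment: test compound, 48 hours, 5 concentrations. Analysis: linear interpolation between bracketing concentrations; unreached endpoints set to highest concentration. The concentration for 50% growth inhibition is given as GI50.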 Active and inactive are the calls of the source. No stated cut-off is given here; in the data, active = GI50 up to about 1.1 µM and inactive = higher.
Assays:
Assay in all cases: NCI tumour cell line growth inhibition, 48 h
[1] = test system: U-251
[2] = test system: OVCAR-5
[3] = test system: SK-MEL-2
[4] = test system: SF-295
[5] = test system: SW-620
[6] = test system: LOX IMVI
[7] = test system: BT-549
[8] = test system: M14
[9] = test system: Malme-3M
[10] = test system: SR
[11] = test system: CAKI-1
[12] = test system: OVCAR-4
[13] = test system: SK-OV-3
[14] = test system: K562
[15] = test system: TK-10
[16] = test system: COLO 205
[17] = test system: UACC-257
[18] = test system: CCRF-CEM
[19] = test system: A549
[20] = test system: NCI-H522
[21] = test system: OVCAR-3
[22] = test system: ACHN
[23] = test system: SK-MEL-28
[24] = test system: RXF 393
[25] = test system: SK-MEL-5
[26] = test system: MDA-MB-231
[27] = test system: HCC 2998
[28] = test system: MOLT-4
[29] = test system: SNB-19
[30] = test system: MDA-N
[31] = test system: A498
[32] = test system: EKVX
[33] = test system: T47D
[34] = test system: PC-3
[35] = test system: HOP-62
[36] = test system: UO-31
[37] = test system: MCF7
[38] = test system: OVCAR-8
[39] = test system: MDA-MB-435
[40] = test system: NCI-H23
[41] = test system: Hs-578T
[42] = test system: UACC-62
[43] = test system: SF-268
[44] = test system: KM12
[45] = test system: SNB-75
[46] = test system: RPMI-8226
[47] = test system: NCI-H460
[48] = test system: 786-0
[49] = test system: DU-145
[50] = test system: SF-539
[51] = test system: HCT-116
[52] = test system: NCI-H226
[53] = test system: SN12C
[54] = test system: HCT-15
[55] = test system: HT-29
[56] = test system: IGROV-1
[57] = test system: HOP-92
[58] = test system: HL-60
[59] = test system: NCI/ADR-RES

In the case of `CC(=O)OC[C@@H](OC(C)=O)[C@H](OC(C)=O)[C@@H]1OC(C)(C)O[C@@H]1C1SCCCS1`, the GI50 [1] is reported as > 100 µM (inactive), the GI50 [2] is reported as > 100 µM (inactive) and the GI50 [3] is reported as > 100 µM (inactive). For the same molecule, the GI50 [4] was > 100 µM (inactive), the GI50 [5] was > 100 µM (inactive) and the GI50 [6] was > 100 µM (inactive). For the same molecule, the GI50 [7] was > 100 µM (inactive), the GI50 [8] was > 100 µM (inactive) and the GI50 [9] was > 100 µM (inactive). The GI50 [10] was > 100 µM (inactive), the GI50 [11] was > 100 µM (inactive) and the GI50 [12] was > 100 µM (inactive). The GI50 [13] was > 100 µM (inactive), the GI50 [14] was > 100 µM (inactive) and the GI50 [15] was > 100 µM (inactive). For the same molecule, the GI50 [16] was > 100 µM (inactive), the GI50 [17] was > 100 µM (inactive) and the GI50 [18] was > 100 µM (inactive). For the same molecule, the GI50 [19] was > 100 µM (inactive), the GI50 [20] was > 100 µM (inactive) and the GI50 [21] was > 100 µM (inactive). The GI50 [22] was > 100 µM (inactive), the GI50 [23] was > 100 µM (inactive) and the GI50 [24] was > 100 µM (inactive). For the same molecule, the GI50 [25] was > 100 µM (inactive), the GI50 [26] was > 100 µM (inactive) and the GI50 [27] was > 100 µM (inactive). For the same molecule, the GI50 [28] was > 100 µM (inactive), the GI50 [29] was > 100 µM (inactive) and the GI50 [30] was > 100 µM (inactive). The GI50 [31] was > 100 µM (inactive), the GI50 [32] was > 100 µM (inactive) and the GI50 [33] was > 100 µM (inactive). The GI50 [34] was > 100 µM (inactive), the GI50 [35] was > 100 µM (inactive) and the GI50 [36] was > 100 µM (inactive). The GI50 [37] was > 100 µM (inactive), the GI50 [38] was > 100 µM (inactive) and the GI50 [39] was > 100 µM (inactive). The GI50 [40] was > 100 µM (inactive), the GI50 [41] was > 100 µM (inactive) and the GI50 [42] was > 100 µM (inactive). The GI50 [43] was > 100 µM (inactive), the GI50 [44] was > 100 µM (inactive) and the GI50 [45] was > 100 µM (inactive). The GI50 [46] was > 100 µM (inactive), the GI50 [47] was > 100 µM (inactive) and the GI50 [48] was > 100 µM (inactive). For the same molecule, the GI50 [49] was > 100 µM (inactive), the GI50 [50] was > 100 µM (inactive) and the GI50 [51] was > 100 µM (inactive).
`CC(=O)O[C@H]1CC[C@@H](OC(C)=O)[C@H]2[C@H](O)[C@H](O)[C@@H]1n1c(=O)n(-c3ccccc3)c(=O)n12` was tested, and the GI50 [1] was > 100 µM (inactive), the GI50 [2] was > 100 µM (inactive) and the GI50 [3] was > 100 µM (inactive). For the same molecule, the GI50 [52] was > 100 µM (inactive), the GI50 [53] was > 100 µM (inactive) and the GI50 [4] was > 100 µM (inactive). The GI50 [5] was > 100 µM (inactive), the GI50 [6] was > 100 µM (inactive) and the GI50 [7] was > 100 µM (inactive). For the same molecule, the GI50 [8] was > 100 µM (inactive), the GI50 [54] was > 100 µM and the GI50 [9] was > 100 µM (inactive). The GI50 [11] was > 100 µM (inactive), the GI50 [55] was > 100 µM (inactive) and the GI50 [12] was > 100 µM (inactive). The GI50 [14] was > 100 µM (inactive), the GI50 [15] was > 100 µM (inactive) and the GI50 [16] was > 100 µM (inactive). For the same molecule, the GI50 [17] was > 100 µM (inactive), the GI50 [18] was > 100 µM (inactive) and the GI50 [19] was > 100 µM (inactive). The GI50 [20] was > 100 µM (inactive), the GI50 [21] was > 100 µM (inactive) and the GI50 [22] was > 100 µM (inactive). For the same molecule, the GI50 [23] was > 100 µM (inactive), the GI50 [24] was > 100 µM (inactive) and the GI50 [25] was > 100 µM (inactive). The GI50 [56] was > 100 µM (inactive), the GI50 [26] was > 100 µM (inactive) and the GI50 [28] was > 100 µM (inactive). For the same molecule, the GI50 [29] was > 100 µM (inactive), the GI50 [30] was > 100 µM (inactive) and the GI50 [31] was > 100 µM (inactive). For the same molecule, the GI50 [32] was > 100 µM (inactive), the GI50 [33] was > 100 µM (inactive) and the GI50 [34] was > 100 µM (inactive). For the same molecule, the GI50 [35] was > 100 µM (inactive), the GI50 [57] was > 100 µM (inactive) and the GI50 [36] was > 100 µM (inactive). For the same molecule, the GI50 [37] was > 100 µM (inactive), the GI50 [38] was > 100 µM (inactive) and the GI50 [39] was > 100 µM (inactive). For the same molecule, the GI50 [40] was > 100 µM (inactive), the GI50 [58] was > 100 µM (inactive) and the GI50 [41] was > 100 µM (inactive). For the same molecule, the GI50 [42] was > 100 µM (inactive), the GI50 [43] was > 100 µM (inactive) and the GI50 [44] was > 100 µM (inactive). For the same molecule, the GI50 [46] was > 100 µM (inactive), the GI50 [48] was > 100 µM (inactive) and the GI50 [49] was > 100 µM (inactive). For the same molecule, the GI50 [50] was > 100 µM (inactive), the GI50 [51] was > 100 µM (inactive) and the GI50 [59] was > 100 µM (inactive).
